Test results from ChEMBL document CHEMBL5291721, “A preclinical secondary pharmacology resource illuminates target-adverse drug reaction associations of marketed drugs” (Nat Commun, 2023).
Where a SMILES comes first, the peptide text is derived from it.

Experiments:
Adenosine receptor A2a = Adenosine receptor A2a (Homo sapiens, UniProt P29274)
Adenosine receptor A3 = target: T1, Adenosine receptor A3 (Homo sapiens, UniProt P0DMS8)
T1 sequence (P0DMS8 whole entry): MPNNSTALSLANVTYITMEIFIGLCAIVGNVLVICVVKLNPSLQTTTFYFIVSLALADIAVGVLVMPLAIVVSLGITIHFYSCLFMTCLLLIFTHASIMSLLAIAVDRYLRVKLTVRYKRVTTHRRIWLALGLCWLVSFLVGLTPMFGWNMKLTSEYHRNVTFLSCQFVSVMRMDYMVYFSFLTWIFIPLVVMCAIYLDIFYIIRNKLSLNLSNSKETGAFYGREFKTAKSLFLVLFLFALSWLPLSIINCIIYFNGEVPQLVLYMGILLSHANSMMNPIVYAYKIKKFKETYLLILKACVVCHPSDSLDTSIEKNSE

Vasopressin V2 receptor = Vasopressin V2 receptor (Homo sapiens, UniProt P30518)
Chain of Vasopressin V2 receptor (P30518 whole entry): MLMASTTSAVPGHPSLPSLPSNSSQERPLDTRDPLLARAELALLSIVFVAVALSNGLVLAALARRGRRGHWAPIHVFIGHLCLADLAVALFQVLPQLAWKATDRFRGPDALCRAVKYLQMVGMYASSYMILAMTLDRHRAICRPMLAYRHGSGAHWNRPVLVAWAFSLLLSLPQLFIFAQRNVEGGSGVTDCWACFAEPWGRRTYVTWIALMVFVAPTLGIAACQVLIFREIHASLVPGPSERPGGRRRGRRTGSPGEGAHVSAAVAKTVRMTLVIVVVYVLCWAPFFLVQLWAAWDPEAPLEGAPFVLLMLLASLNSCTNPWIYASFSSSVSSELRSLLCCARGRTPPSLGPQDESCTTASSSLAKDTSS

[1] = target: T2, Cholecystokinin receptor type A (Homo sapiens, UniProt P32238)
T2 sequence (P32238 whole entry): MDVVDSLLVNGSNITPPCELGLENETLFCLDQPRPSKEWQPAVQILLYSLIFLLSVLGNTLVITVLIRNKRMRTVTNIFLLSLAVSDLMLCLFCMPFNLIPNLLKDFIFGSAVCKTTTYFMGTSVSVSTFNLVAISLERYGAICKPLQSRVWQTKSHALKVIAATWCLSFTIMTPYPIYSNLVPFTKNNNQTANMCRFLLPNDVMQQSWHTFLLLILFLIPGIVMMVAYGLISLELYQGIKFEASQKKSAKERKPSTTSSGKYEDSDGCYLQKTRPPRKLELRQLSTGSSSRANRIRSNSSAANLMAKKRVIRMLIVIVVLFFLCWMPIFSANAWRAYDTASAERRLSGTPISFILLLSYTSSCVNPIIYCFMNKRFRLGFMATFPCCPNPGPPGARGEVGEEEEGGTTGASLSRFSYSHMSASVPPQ

D(1A) dopamine receptor = D(1A) dopamine receptor (Homo sapiens, UniProt P21728); assay type: functional, cell-based
Chain of D(1A) dopamine receptor (P21728 whole entry): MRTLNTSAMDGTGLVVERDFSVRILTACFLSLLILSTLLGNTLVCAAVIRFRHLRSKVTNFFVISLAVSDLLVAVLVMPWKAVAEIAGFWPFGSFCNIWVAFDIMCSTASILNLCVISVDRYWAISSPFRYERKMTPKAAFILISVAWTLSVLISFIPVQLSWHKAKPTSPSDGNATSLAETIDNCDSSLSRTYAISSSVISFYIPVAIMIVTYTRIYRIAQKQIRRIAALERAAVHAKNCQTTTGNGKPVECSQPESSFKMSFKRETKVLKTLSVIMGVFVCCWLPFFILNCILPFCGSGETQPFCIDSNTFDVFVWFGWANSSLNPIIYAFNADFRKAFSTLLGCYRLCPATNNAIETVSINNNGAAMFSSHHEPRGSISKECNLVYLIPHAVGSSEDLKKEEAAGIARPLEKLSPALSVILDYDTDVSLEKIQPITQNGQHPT

Melanocortin receptor 4 = Melanocortin receptor 4 (Homo sapiens, UniProt P32245)
Chain of Melanocortin receptor 4 (P32245 whole entry): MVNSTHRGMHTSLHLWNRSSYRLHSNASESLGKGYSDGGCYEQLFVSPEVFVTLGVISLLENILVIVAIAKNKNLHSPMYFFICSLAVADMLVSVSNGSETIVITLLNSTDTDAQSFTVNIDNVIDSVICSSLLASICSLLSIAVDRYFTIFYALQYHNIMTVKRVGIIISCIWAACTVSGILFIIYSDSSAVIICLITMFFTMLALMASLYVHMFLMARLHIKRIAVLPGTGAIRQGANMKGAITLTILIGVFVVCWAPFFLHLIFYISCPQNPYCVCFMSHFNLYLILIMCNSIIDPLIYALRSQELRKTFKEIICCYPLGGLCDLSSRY

[2] = target: T3, Prostaglandin G/H synthase 1 (Rattus norvegicus, UniProt Q63921); assay type: functional
T3 sequence (Q63921 whole entry): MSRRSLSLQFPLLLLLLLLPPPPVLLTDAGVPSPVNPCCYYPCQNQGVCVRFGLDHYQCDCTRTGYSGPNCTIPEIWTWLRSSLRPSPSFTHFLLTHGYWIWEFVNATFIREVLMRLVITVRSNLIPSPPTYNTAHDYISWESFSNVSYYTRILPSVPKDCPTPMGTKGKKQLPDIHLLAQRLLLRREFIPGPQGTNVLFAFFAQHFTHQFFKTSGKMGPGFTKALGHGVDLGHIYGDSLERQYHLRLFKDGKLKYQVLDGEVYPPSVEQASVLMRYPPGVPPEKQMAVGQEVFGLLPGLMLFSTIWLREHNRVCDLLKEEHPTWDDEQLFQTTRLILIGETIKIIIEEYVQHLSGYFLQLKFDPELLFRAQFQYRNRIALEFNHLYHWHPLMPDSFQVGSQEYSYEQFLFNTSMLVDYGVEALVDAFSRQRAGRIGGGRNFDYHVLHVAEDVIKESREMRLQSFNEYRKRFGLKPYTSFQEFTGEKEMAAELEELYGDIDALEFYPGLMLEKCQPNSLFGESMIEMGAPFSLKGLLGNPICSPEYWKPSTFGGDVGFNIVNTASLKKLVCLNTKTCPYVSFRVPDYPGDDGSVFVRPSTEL

Histamine H3 receptor = Histamine H3 receptor (Homo sapiens, UniProt Q9Y5N1)
Chain of Histamine H3 receptor (Q9Y5N1 whole entry): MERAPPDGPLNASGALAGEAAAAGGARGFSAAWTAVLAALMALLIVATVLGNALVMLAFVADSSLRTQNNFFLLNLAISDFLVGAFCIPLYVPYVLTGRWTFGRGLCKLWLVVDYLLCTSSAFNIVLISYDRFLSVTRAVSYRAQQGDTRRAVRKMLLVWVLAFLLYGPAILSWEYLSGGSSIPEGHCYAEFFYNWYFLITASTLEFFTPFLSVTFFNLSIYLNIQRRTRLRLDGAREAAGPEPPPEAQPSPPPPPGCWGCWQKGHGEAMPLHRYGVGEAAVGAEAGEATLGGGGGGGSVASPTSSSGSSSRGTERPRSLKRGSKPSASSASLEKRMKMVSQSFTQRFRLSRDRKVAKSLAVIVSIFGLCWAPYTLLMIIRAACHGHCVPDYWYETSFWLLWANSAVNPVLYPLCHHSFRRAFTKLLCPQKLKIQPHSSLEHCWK

[3] = target: Muscarinic acetylcholine receptor M3 (Homo sapiens, UniProt P20309)
Chain of Muscarinic acetylcholine receptor M3 (P20309 whole entry): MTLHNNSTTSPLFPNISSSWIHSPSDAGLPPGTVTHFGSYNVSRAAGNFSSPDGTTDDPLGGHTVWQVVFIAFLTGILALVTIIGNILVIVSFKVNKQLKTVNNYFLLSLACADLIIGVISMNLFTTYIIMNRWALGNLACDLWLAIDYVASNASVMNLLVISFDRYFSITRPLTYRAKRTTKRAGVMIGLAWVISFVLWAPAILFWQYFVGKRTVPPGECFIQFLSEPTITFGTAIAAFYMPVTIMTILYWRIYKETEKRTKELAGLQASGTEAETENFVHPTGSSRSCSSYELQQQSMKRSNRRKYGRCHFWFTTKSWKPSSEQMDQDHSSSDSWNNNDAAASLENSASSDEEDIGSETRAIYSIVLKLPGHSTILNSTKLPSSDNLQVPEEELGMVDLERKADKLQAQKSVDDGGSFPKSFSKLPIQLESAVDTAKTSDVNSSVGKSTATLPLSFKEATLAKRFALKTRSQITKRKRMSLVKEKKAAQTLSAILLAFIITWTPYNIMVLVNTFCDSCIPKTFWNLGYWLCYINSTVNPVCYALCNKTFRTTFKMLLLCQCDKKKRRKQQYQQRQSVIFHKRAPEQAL

[4] = target: 5-hydroxytryptamine receptor 2A (Homo sapiens, UniProt P28223); assay type: functional, cell-based
Chain of 5-hydroxytryptamine receptor 2A (P28223 whole entry): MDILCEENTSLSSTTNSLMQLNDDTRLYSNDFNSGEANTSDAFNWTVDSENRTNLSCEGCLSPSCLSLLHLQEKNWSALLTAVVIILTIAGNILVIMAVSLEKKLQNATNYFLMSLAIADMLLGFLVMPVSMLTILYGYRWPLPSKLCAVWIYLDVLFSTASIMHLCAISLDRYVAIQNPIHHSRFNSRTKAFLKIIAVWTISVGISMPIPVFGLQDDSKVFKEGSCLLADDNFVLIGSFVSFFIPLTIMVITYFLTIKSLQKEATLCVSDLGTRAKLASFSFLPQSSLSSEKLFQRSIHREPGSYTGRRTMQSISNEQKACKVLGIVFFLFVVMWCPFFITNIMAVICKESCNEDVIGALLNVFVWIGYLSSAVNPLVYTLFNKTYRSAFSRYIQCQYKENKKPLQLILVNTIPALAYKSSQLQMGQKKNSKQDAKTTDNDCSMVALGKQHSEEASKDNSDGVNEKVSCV

Progesterone receptor = target: T4, Progesterone receptor (Homo sapiens, UniProt P06401); assay type: functional
T4 sequence (P06401 whole entry): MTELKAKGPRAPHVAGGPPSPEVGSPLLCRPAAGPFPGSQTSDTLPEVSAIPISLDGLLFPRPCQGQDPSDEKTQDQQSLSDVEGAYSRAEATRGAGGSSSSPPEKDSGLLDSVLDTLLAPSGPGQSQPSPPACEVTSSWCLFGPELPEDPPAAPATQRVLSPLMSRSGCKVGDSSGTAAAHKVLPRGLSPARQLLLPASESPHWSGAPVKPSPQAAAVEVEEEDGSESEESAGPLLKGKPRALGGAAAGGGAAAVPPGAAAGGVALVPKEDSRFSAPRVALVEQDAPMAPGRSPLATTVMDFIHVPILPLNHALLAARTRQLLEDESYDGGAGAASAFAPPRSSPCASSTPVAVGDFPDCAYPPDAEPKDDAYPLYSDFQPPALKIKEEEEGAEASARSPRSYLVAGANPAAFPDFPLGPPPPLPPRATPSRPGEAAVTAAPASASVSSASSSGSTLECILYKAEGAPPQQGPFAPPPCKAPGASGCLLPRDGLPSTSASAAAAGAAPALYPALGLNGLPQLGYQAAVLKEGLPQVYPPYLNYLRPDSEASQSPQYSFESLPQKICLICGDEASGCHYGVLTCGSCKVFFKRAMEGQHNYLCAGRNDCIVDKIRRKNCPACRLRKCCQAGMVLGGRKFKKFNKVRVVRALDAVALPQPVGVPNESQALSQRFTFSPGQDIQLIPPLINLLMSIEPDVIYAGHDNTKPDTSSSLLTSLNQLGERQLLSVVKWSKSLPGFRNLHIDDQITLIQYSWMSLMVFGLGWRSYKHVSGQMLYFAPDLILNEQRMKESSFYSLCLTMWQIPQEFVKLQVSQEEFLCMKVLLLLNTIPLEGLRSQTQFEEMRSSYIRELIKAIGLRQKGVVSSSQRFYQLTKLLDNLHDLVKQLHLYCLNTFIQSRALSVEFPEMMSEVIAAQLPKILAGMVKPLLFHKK
Further: assay procedure not described here.

Chain of Adenosine receptor A2a (P29274 whole entry): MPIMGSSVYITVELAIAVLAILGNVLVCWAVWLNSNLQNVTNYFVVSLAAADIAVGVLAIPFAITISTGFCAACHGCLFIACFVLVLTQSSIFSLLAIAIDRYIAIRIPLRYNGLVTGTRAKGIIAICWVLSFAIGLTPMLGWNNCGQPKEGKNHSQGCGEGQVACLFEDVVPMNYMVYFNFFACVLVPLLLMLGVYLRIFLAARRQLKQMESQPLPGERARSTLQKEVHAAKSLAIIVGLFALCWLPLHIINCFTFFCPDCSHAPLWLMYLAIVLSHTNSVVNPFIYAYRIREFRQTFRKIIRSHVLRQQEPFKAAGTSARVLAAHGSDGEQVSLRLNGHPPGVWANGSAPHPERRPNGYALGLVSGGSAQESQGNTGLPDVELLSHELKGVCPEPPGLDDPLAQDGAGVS

SMILES	AC50 (Adenosine receptor A2a) [µM]	AC50 (Adenosine receptor A3) [µM]	AC50 (Vasopressin V2 receptor) [µM]	AC50 [1] [µM]	AC50 (D(1A) dopamine receptor) [µM]	AC50 (Melanocortin receptor 4) [µM]	AC50 [2] [µM]	AC50 (Histamine H3 receptor) [µM]	AC50 [3] [µM]	AC50 [4] [µM]	AC50 (Progesterone receptor) [µM]
N=C(N)NC(=O)Cc1c(Cl)cccc1Cl [GUANFACINE]	> 30	> 30	> 30	> 30	> 30	> 30	> 30				
CCN(CC)CC(=O)Nc1c(C)cccc1C [LIDOCAINE]	> 30	> 30	> 30	> 30		22.7	> 30				
O=C(O[C@H]1C[N+]2(CCCOc3ccccc3)CCC1CC2)C(O)(c1cccs1)c1cccs1 [ACLIDINIUM BROMIDE]	> 30	> 30	> 30	> 30		> 30	> 30	> 10			
OCCN(CCO)c1nc(N2CCCCC2)c2nc(N(CCO)CCO)nc(N3CCCCC3)c2n1 [DIPYRIDAMOLE]	> 30	24.7	> 30	> 30	> 30	> 30	> 30				
Cc1ccc(S(=O)(=O)NC(=O)N[C@H]2[C@H]3CC[C@@](C)([C@H]2O)C3(C)C)cc1 [GLIBORNURIDE]	> 30	> 30	> 30	> 30	> 30		> 30	> 30	> 30	> 30	> 30
CCCO[C@H]1[C@@H]([C@@H](COCc2ccc(Cl)cc2)OCc2ccc(Cl)cc2)OC(OCC)[C@@H]1O (some centres undefined) [CLOBENOSIDE]	> 30	20	> 30	> 30	> 30		> 10	> 30	> 30	> 30	22
CC1=C(/C=C/C(C)=C/C=C/C(C)=C/C(=O)Oc2c(C)c(C)c3c(c2C)CCC(C)(CCCC(C)CCCC(C)CCCC(C)C)O3)C(C)(C)CCC1 (centres undefined) [TRETINOIN TOCOFERIL]	> 30	> 30	> 30	> 30	> 30		> 30	> 30	> 30	> 30	19
COc1ccc(-n2nc(C(N)=O)c3c2C(=O)N(c2ccc(N4CCCCC4=O)cc2)CC3)cc1 [APIXABAN]	> 30	> 30	> 30	> 30	> 30		> 30	> 30	> 30	> 30	> 30
CCN1C(=O)NC(c2ccccc2)C1=O (centres undefined) [ETHOTOIN]	> 30	12	> 30	> 30	> 30		22	> 30	> 30	> 30	> 30
CC1=C(C(=O)O)N2C(=O)[C@@H](NC(=O)[C@H](N)C3=CCC=CC3)[C@H]2SC1 [CEPHRADINE]	> 30	27	> 30	> 30	> 30		> 30	> 30	> 30	> 30	22
C[C@H](N)C(=O)N[C@@H](CCC(N)=O)C(=O)O [ALANYL GLUTAMINE] (H-Ala-Gln-OH)	> 30	> 30	> 30	> 30	> 30		> 30	> 30	> 30	> 30	> 30
CCC(NC(C)C)C(O)c1ccc(O)c(O)c1 (centres undefined) [ISOETHARINE]	> 30	> 30	> 30	> 30	> 30		0.66	> 30	> 30	> 30	> 30
CCCCC[C@H](O)CC[C@@H]1[C@H]2Cc3cccc(OCC(=O)O)c3C[C@H]2C[C@H]1O [TREPROSTINIL]	> 30	> 30	> 30	> 30	> 30		> 30	> 30	> 30	> 30	> 30
CO/N=C(\C(=O)N[C@@H]1C(=O)N2C(C(=O)O)=C(CSc3nc(C)c(CC(=O)O)s3)CS[C@H]12)c1csc(N)n1 [CEFODIZIME]	> 30	> 30	> 30	> 30	> 30		27	> 30	> 30	> 30	> 30
COC(=O)c1ccc2c(c1)NC(=O)/C2=C(\Nc1ccc(N(C)C(=O)CN2CCN(C)CC2)cc1)c1ccccc1 [NINTEDANIB]	21	> 30	> 30	> 30	> 30		> 30	> 30	> 30	> 30	> 30
CC(NC(C)(C)C)C(=O)c1cccc(Cl)c1 (centres undefined) [BUPROPION]	> 30	> 30	> 30	> 30	> 10	> 30		> 10			
CCC(=O)O[C@H](CC(=O)O)C[N+](C)(C)C [LEVOCARNITINE PROPIONATE]	> 30	> 30	> 30	> 30	> 30		> 30	> 30	> 30	> 30	> 30
CCCCOC(=O)C(=O)Nc1cccc(-c2nnn[nH]2)c1 [TAZANOLAST]	> 30	> 30	> 30	> 30	> 30		> 30	> 30	> 30	> 30	> 30
